This note sets out measurements from publication PMC3731320, “Identification of Benzimidazole Diamides as Selective Inhibitors of the Nucleotide-Binding Oligomerization Domain 2 (NOD2) Signaling Pathway” (PLoS ONE, 2013).

The subject of the test is NOD2. The test can be described thus: MDP-stimulated IL-8 release in 293/hNOD2 cells (HTRF). Format: cell-based, human. Particulars: Homo sapiens; MDP-stimulated IL-8 production assay in 293/hNOD2 cells; Figures 4 and 5; read-out: NOD2 IC50. As to the method: After 24 hours the amount of IL-8 secreted into the medium was determined by homogeneous time resolved fluorescence (HTRF) assay by the direct addition of a 1:1 mix of europium cryptate and XL665-conjugated anti-IL-8 antibodies according to the manufacturer's instructions (Cisbio).
On the technique in general: Time-resolved FRET reads energy transfer from a long-lived donor to a nearby acceptor.
As usually defined, the IC50 is the concentration that inhibits the measured activity by half. As for `CC(C)c1cccc(NC(=O)Cn2c(CCNC(=O)c3ccccc3)nc3ccccc32)c1` [Compound 3, N-(2-(1-(2-((3-isopropylphenyl)amino)-2-oxoethyl)-1H-benzo[d]imidazol-2-yl)ethyl)benzamide], the IC50 is 0.8 ± 0.5 µM.
With `O=C(Cn1c(CCNC(=O)c2ccccc2)nc2ccccc21)Nc1ccc2sccc2c1` [Compound 4, N-(2-(1-(2-(benzo[b]thiophen-5-ylamino)-2-oxoethyl)-1H-benzo[d]imidazol-2-yl)ethyl)benzamide] the figure was 1.3 ± 0.02 µM; with `O=C(Cn1c(CCNC(=O)c2ccccc2)nc2ccccc21)Nc1ccc2ccccc2c1` [Compound 5, N-(2-(1-(2-(naphthalen-2-ylamino)-2-oxoethyl)-1H-benzo[d]imidazol-2-yl)ethyl)benzamide], 1.6 ± 1.3 µM; with `Cc1ccc(NC(=O)Cn2c(CCNC(=O)c3ccccc3)nc3ccccc32)cc1C` [Compound 6, N-(2-(1-(2-(3,4-dimethylphenylamino)-2-oxoethyl)-1H-benzo[d]imidazol-2-yl)ethyl)benzamide], 2.8 ± 0.1 µM.
The same measure for `O=C(Cn1c(CCNC(=O)c2ccccc2)nc2ccccc21)Nc1ccc2occc2c1` [Compound 7, N-(2-(1-(2-(benzofuran-5-ylamino)-2-oxoethyl)-1H-benzo[d]imidazol-2-yl)ethyl)benzamide]: 3.3 ± 0.9 µM; for `O=C(Cn1c(CCNC(=O)c2ccccc2)nc2ccccc21)Nc1ccc(Cl)c(Cl)c1` [Compound 8, N-(2-(1-(2-(3,4-dichlorophenylamino)-2-oxoethyl)-1H-benzo[d]imidazol-2-yl)ethyl)benzamide]: 3.3 ± 2.1 µM; for `O=C(Cn1c(CCNC(=O)c2ccccc2)nc2ccccc21)Nc1ccc2c(c1)C(O)CC2` (centres unmarked) [Compound 9, N-(2-(1-(2-((3-hydroxy-2,3-dihydro-1H-inden-5-yl)amino)-2-oxoethyl)-1H-benzo[d]imidazol-2-yl)ethyl)benzamide]: 35.2 ± 9.1 µM.
With `O=C(Cn1c(CCNC(=O)c2ccccc2)nc2ccccc21)Nc1ccc2c(c1)CCN2` [Compound 10, N-(2-(1-(2-(indolin-5-ylamino)-2-oxoethyl)-1H-benzo[d]imidazol-2-yl)ethyl)benzamide] the figure was above 50 µM; with `O=C(Cn1c(CCNC(=O)c2ccccc2)nc2ccccc21)Nc1ccc(OCc2ccccc2)cc1` [Compound 11, N-(2-(1-(2-((4-(benzyloxy)phenyl)amino)-2-oxoethyl)-1H-benzo[d]imidazol-2-yl)ethyl)benzamide], above 50 µM.
Take `O=C(Cn1c(CCNC(=O)c2ccccc2)nc2ccccc21)Nc1ccc2c(c1)NCC2` [Compound 12, N-(2-(1-(2-(indolin-6-ylamino)-2-oxoethyl)-1H-benzo[d]imidazol-2-yl)ethyl)benzamide]: the half-inhibitory concentration (IC50) is above 50 µM.
With `O=C(Cn1c(CCNC(=O)c2ccccc2)nc2ccccc21)Nc1ccc(Oc2ccccc2)cc1` [Compound 13, N-(2-(1-(2-oxo-2-((4-phenoxyphenyl)amino)ethyl)-1H-benzo[d]imidazol-2-yl)ethyl)benzamide] the figure was above 50 µM; with `O=C(Cn1c(CCNC(=O)c2ccccc2)nc2ccccc21)Nc1ccc2[nH]ccc2c1` [Compound 14, N-(2-(1-(2-(1H-indol-5-ylamino)-2-oxoethyl)-1H-benzo[d]imidazol-2-yl)ethyl)benzamide], above 50 µM; with `O=C(Cn1c(CCNC(=O)c2cccc3ccccc23)nc2ccccc21)Nc1ccc2c(c1)CCC2` [Compound 15, N-(2-(1-(2-((2,3-dihydro-1H-inden-5-yl)amino)-2-oxoethyl)-1H-benzo[d]imidazol-2-yl)ethyl)-1-naphthamide], 3.4 ± 0.2 µM.
Consider `O=C(Cn1c(CCNC(=O)c2ccccc2Cl)nc2ccccc21)Nc1ccc2c(c1)CCC2` [Compound 16, 2-chloro-N-(2-(1-(2-((2,3-dihydro-1H-inden-5-yl)amino)-2-oxoethyl)-1H-benzo[d]imidazol-2-yl)ethyl)benzamide], for which the IC50 came out at 3.8 ± 1.4 µM.
